In PubChem BioAssay (NCI):
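All cell lines were grown in 96-well plates and treated with compound for 48 hours. TGI: total growth inhibition.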

Legend:
Experiment in all cases: growth of human tumour cells (NCI), 48 h
A498 renal = test system: A498 renal
ACHN renal = test system: ACHN renal
BT-549 breast = test system: BT-549 breast
CAKI-1 renal = test system: CAKI-1 renal
CCRF-CEM leukemia = test system: CCRF-CEM leukemia
COLO 205 colon = test system: COLO 205 colon
EKVX NSCLC = test system: EKVX NSCLC
HOP-92 NSCLC = test system: HOP-92 NSCLC
K-562 leukemia = test system: K-562 leukemia
MDA-MB-231 breast = test system: MDA-MB-231 breast
MDA-MB-435 = test system: MDA-MB-435
MOLT-4 leukemia = test system: MOLT-4 leukemia
NCI-H460 lung = test system: NCI-H460 lung
OVCAR-5 ovarian = test system: OVCAR-5 ovarian
OVCAR-8 ovarian = test system: OVCAR-8 ovarian
SK-MEL-5 melanoma = test system: SK-MEL-5 melanoma
SN12C renal = test system: SN12C renal
U251 CNS = test system: U251 CNS
UACC-257 melanoma = test system: UACC-257 melanoma
UACC-62 melanoma = test system: UACC-62 melanoma

Row | Structure (SMILES) | TGI (A498 renal) [µM] | TGI (ACHN renal) [µM] | TGI (BT-549 breast) [µM] | TGI (CAKI-1 renal) [µM] | TGI (CCRF-CEM leukemia) [µM] | TGI (COLO 205 colon) [µM] | TGI (EKVX NSCLC) [µM] | TGI (HOP-92 NSCLC) [µM] | TGI (K-562 leukemia) [µM] | TGI (MDA-MB-231 breast) [µM] | TGI (MDA-MB-435) [µM] | TGI (MOLT-4 leukemia) [µM] | TGI (NCI-H460 lung) [µM] | TGI (OVCAR-5 ovarian) [µM] | TGI (OVCAR-8 ovarian) [µM] | TGI (SK-MEL-5 melanoma) [µM] | TGI (SN12C renal) [µM] | TGI (U251 CNS) [µM] | TGI (UACC-257 melanoma) [µM] | TGI (UACC-62 melanoma) [µM]
1 | COc1ccc(-c2nc3ccc(C)cc3o2)c(OC)c1 | 46.5 | > 100 | 67.1 | 76.1 | 65.8 | 40.7 | 63 | > 66.8 | > 64.5 | 50.5 | 52.9 | 52.9 | 65.6 | 42 | 77.1 | 43.3 | > 82.1 | 65 | 46.5 | 70.2
2 | Nc1nc(Cl)cc(Nc2ccc3c(c2)CCC3)n1 | > 100 | > 100 | > 100 | > 100 | > 100 | > 100 | > 100 | > 100 | > 100 | > 100 | > 100 | 84.7 | > 100 | > 100 | > 100 | > 100 | > 100 | > 100 | > 100 | > 100
3 | O=[N+]([O-])c1cc(Cl)ccc1S(=O)(=O)c1ccccc1 | > 100 | > 100 | > 100 | > 100 | > 100 | > 100 | > 100 | > 100 | > 100 | > 100 | > 100 | > 100 | > 100 | > 100 | > 100 | > 100 | > 100 | > 100 | > 100 | > 100
4 | O=C(O)/C(=C\c1ccccc1)Cc1ccccc1 | > 100 | > 100 | > 100 | > 100 | > 100 | > 100 | > 100 | > 100 | > 100 | > 100 | > 100 | > 100 | > 100 | > 100 | > 100 | > 100 | > 100 | > 100 | > 100 | > 100
5 | CC(=O)OCCn1c(Cc2ccc([N+](=O)[O-])cc2)nn(C(C)=O)c1=O | > 100 | > 100 | > 100 | > 100 | > 100 | > 100 | > 100 | > 100 | > 100 | > 100 | > 100 | > 100 | > 100 | > 100 | > 100 | > 100 | > 100 | > 100 | > 100 | > 100
6 | CC(C)(C)OC(=O)C(C1NC(C(=O)O)C(C)(C)S1)N1C(=O)c2ccccc2C1=O (stereo not given) | > 100 | > 100 | > 100 | > 100 | > 100 | > 100 | > 100 | > 100 | > 100 | > 100 | > 100 | > 100 | > 100 | > 100 | > 100 | > 100 | > 100 | > 100 | > 100 | > 100
